Series [1] concerns M. tuberculosis reference strain H37Rv. Description: Survival under monotherapy in intravenous model (related to Study C). The series is classed as in vivo, Mycobacterium tuberculosis. Particulars: for Day of death, individual mice: monotherapy, read with the 1/0 flag of the same line (96 with flag 0).
The test system of series [2] is M. tuberculosis H37Rv. Description: MIC90 determination, H37Rv. In kind it is cell-based, Mycobacterium tuberculosis. Particulars: Mycobacterium tuberculosis.
Series [3] has as its system M. tuberculosis clinical isolates. Description: microbe, parasite or virus in culture. In kind it is cell-based, Mycobacterium tuberculosis. The following applies: Mycobacterium tuberculosis.
The test system of series [4] is M. tuberculosis ΔcydAB (Parent). Kind of series: microbe, parasite or virus in culture. In kind it is cell-based. Particulars: Mycobacterium tuberculosis.
The subject of another series is H37Rv_CydBd-KO. Kind of series: microbe, parasite or virus in culture. In kind it is cell-based, Mycobacterium tuberculosis. Particulars: Mycobacterium tuberculosis.
In series [5] the test system is M. tuberculosis H37Rv. Kind of series: MBC99.9 determination, H37Rv. The following applies: Mycobacterium tuberculosis, H37RV. In kind it is cell-based, Mycobacterium tuberculosis.
Another series deals with H37Rv_CytBd-KO. Description: microbe, parasite or virus in culture. In kind it is cell-based, Mycobacterium tuberculosis. The following applies: Mycobacterium tuberculosis; read-out: MBC99.9 (H37Rv_CytBd-KO).
The next series has as its system WT H37Rv. The series is classed as cell-based, Mycobacterium tuberculosis. The following applies: biological replicates.
The subject of a further series is N1283 clinical isolate. The series is classed as cell-based, Mycobacterium tuberculosis. The following applies: biological replicates.
The format of series [6] is in vitro ADME. Here is the method: (§1) Details of the metabolic stability in liver microsomes and hepatocytes together with CYP inhibition in human liver microsomes and plasma protein binding have been published previously. The CYP induction assay was conducted by Puracyp Inc (www.puracyp.com). Studies were designed to evaluate the effect of compounds on the activation of human PXR (hPXR). The DPX2TM cells harbour the human PXR gene (NR1I2) and a luciferase reporter gene linked to two promoters identified in the human CYP3A4 gene, namely XREM and PXRE. These cells were seeded in a 96-well plate. Twenty-four hours after seeding, the cells were treated with various concentrations of compounds then incubated for an additional 24 h. Following this, the number of viable cells per well were determined using Promega’s CellTiter Fluor Cytotoxicity Assay. Briefly, One-Glo was added to the same wells and reporter gene activity was assessed. The luminescence light intensity was directly proportional to the extent of PXR activation and accompanying gene transcription in the DPX2TM cells.

A further series addresses human PXR (hPXR) (Homo sapiens, UniProt O75469). In kind it is in vitro ADME. As for the experimental part:
as §1

The format of series [7] is in vitro ADME. The following applies: hepatocytes.
The target in a further series is T1, 3A4 (Homo sapiens, UniProt P08684).
T1 construct: from tissue; host or cells: human liver microsomes
T1 sequence (P08684 whole entry): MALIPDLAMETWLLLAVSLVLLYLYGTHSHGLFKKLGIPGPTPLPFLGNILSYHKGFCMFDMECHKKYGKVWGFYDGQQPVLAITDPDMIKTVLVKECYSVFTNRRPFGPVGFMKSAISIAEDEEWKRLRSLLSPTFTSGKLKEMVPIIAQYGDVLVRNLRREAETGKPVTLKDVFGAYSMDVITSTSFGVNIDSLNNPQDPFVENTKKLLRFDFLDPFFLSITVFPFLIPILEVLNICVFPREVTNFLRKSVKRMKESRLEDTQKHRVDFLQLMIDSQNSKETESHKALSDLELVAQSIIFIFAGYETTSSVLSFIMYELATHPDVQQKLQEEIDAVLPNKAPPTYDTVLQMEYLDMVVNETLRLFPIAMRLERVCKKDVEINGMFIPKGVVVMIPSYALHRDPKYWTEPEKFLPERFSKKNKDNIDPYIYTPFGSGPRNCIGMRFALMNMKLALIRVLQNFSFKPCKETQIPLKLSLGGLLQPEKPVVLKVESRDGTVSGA
In kind it is in vitro ADME.

For a further series, the target named is T2, 2C19 (Homo sapiens, UniProt P33261).
T2 construct: from tissue; host or cells: human liver microsomes
T2 sequence (P33261 whole entry): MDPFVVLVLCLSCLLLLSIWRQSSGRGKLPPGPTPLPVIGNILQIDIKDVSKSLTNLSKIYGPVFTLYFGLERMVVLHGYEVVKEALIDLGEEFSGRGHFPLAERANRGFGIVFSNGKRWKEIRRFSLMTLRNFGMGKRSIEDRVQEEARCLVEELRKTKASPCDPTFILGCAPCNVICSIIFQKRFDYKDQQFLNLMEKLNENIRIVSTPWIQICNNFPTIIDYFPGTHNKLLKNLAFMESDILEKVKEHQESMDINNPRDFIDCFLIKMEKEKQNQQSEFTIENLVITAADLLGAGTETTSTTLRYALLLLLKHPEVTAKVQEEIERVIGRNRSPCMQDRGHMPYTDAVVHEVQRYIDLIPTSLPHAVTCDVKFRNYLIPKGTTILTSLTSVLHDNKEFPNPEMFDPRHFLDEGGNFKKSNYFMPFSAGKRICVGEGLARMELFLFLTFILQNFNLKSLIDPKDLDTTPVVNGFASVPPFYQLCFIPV
In kind it is in vitro ADME.

Another series has as its target T3, 2C8 (Homo sapiens, UniProt P10632).
T3 construct: from tissue; host or cells: human liver microsomes
In kind it is in vitro ADME.

The next series has as its target T4, 2C9 (Homo sapiens, UniProt P11712).
T4 construct: from tissue; host or cells: human liver microsomes
In kind it is in vitro ADME.

For a further series, the target named is T5, 2D6 (Homo sapiens, UniProt P10635).
T5 construct: from tissue; host or cells: human liver microsomes
T5 sequence (P10635 whole entry): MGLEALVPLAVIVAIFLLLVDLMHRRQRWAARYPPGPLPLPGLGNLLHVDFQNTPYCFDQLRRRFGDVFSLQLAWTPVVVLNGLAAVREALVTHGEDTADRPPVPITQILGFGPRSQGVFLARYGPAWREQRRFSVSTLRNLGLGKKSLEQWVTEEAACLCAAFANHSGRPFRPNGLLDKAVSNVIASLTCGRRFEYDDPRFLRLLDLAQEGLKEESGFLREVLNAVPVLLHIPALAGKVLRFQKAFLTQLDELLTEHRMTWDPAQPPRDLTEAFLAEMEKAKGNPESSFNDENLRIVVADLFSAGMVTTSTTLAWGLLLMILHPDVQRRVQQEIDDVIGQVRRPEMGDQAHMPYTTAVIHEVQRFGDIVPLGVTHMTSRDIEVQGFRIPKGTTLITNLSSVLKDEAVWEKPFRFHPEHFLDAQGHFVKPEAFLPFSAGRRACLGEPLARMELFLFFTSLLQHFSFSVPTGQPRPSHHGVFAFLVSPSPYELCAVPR
In kind it is in vitro ADME.

A further series deals with T6, 1A2 (Homo sapiens, UniProt P05177).
T6 construct: from tissue; host or cells: human liver microsomes
T6 sequence (P05177 whole entry): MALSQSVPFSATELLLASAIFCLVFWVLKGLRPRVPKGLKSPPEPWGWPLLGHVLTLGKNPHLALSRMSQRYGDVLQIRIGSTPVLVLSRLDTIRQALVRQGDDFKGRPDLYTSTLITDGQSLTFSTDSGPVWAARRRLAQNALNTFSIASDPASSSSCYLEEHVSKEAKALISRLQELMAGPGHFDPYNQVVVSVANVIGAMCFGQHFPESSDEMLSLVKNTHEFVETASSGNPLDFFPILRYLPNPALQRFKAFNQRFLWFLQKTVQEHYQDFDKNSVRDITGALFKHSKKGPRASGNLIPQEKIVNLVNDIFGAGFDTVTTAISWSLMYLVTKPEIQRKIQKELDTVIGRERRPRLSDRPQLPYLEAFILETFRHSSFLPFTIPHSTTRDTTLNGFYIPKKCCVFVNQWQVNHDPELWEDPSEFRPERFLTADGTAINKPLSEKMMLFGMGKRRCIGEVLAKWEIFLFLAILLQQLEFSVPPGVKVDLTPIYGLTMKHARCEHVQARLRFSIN
The series is classed as in vitro ADME.

The next series has as its system HepG2 cells. The following applies: human, 24 h.
The test system of series [8] is Salmonella typhimurium strains TA98 and TAMix.
For series [9] the following is noted: CD-1, mouse, in vivo.
The conditions of series [10]: female, Balb/c, mouse, in vivo, po, 5 mg/kg.
The test system of a further series is MDR-TB strains. Particulars: cited from earlier work.
The test system of series [11] is M. tuberculosis cytochrome bd knockout (CytBd-KO) strain. On the set-up: method as in PMID 40191462. Particulars: acute mouse model; cited from earlier work.
A short description of series [12]: in vivo. The following applies: CD-1, mouse; for half-life: t½.
The nature of series [13]: in vivo. The following applies: female, Balb/c, mouse, po, 5 mg/kg.
A short description of series [14]: in vitro. The following applies: human.
The nature of series [15]: in vitro. The following applies: human. This is another data set of the same source.

Converted amounts (≈) assume the structure as drawn. “And” between values parts separate entries of the source, which are not always exact repeats. Identical values can stand only once. “Also recorded” adds a separate entry of the source. Like-named read-outs stand apart in the source and are kept apart here. Marks after values point to notes of the source that are not given here. Where only a bound is given, the exact number is not on record here.

Sequence of human PXR (hPXR) (O75469 whole entry): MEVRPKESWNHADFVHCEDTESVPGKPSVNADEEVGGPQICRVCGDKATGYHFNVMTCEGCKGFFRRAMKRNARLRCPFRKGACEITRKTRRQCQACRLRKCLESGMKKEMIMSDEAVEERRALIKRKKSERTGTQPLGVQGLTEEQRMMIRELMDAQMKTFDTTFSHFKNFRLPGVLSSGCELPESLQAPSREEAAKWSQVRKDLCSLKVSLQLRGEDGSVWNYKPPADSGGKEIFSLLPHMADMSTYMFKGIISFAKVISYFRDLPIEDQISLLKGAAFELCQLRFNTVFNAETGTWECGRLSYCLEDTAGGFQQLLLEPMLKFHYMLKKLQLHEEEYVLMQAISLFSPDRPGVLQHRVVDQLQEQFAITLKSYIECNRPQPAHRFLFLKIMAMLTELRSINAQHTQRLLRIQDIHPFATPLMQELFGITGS
T4 sequence (P11712 whole entry): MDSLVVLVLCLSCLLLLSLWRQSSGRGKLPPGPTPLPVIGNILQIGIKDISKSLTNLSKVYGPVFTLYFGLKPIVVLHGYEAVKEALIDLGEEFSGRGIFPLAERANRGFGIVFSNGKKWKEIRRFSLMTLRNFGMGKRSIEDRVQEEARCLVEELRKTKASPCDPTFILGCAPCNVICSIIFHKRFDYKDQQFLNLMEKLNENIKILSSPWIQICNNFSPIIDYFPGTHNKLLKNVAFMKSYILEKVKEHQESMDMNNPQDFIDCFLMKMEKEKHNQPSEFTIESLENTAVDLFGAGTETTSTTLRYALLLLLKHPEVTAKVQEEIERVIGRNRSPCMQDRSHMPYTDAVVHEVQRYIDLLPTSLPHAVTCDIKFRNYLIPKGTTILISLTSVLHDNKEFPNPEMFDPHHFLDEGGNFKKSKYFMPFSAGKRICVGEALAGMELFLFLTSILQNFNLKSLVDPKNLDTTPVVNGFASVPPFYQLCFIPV
T3 sequence (P10632 whole entry): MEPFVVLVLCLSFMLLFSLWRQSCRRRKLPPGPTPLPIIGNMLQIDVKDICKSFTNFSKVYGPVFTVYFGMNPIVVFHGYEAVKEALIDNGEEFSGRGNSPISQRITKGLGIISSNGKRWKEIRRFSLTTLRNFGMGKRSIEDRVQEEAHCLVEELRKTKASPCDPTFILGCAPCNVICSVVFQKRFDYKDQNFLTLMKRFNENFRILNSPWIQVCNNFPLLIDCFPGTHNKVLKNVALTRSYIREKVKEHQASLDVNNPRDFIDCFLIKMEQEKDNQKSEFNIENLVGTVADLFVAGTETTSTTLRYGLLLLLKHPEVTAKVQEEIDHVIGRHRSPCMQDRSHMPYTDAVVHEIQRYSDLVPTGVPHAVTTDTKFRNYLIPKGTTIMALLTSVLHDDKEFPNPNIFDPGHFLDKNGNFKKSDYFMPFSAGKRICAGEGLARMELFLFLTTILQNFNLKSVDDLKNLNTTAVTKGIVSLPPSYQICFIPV

With `COc1nc2ccc(Br)cc2cc1[C@@H](c1ccccc1)[C@@](O)(CCN(C)C)c1cccc2ccccc12` [Bedaquiline, bedaquiline, reference compound], the “Survival of mice under monotherapy” value in [1] (in vivo, iv) worked out at 100%. For the same compound, the “Day of death, individual mice” value in [1] (intravenous model) stood at 96. The MIC90 was 0.197 µM (≈ 0.109 µg/mL) with M. tuberculosis H37Rv [2] (strain H37Rv (Institut Pasteur, lineage 4), read-out: MIC90); 0.431 µM (≈ 0.239 µg/mL) in series [3] (strain Mtb-0617 (Karonga, lineage 3)); 0.064 µM (≈ 0.0356 µg/mL) in [3] (strain Mtb-2703 (Karonga, lineage 3)); 0.045 µM (≈ 0.025 µg/mL) in series [3] (strain Mtb-4779 (Karonga, lineage 2)); 0.063 µM (≈ 0.035 µg/mL) in series [3] (strain Mtb-4980 (Karonga, lineage 4)); 0.053 µM (≈ 0.0294 µg/mL) in [3] (strain Mtb-6787 (Karonga, lineage 4)). The MIC90 in series [3] (strain Mtb-7489 (Karonga, lineage 1)) was determined as 0.43 µM (≈ 0.239 µg/mL); in series [3] (strain Mtb-7496 (Karonga, lineage 3)), 0.106 µM (≈ 0.0589 µg/mL); in series [3] (strain Mtb-9271 (Karonga, lineage 4)), 0.05 µM (≈ 0.0278 µg/mL); in series [3] (strain Mtb-61164 (Karonga, lineage 2)), 0.188 µM (≈ 0.104 µg/mL); in series [3] (strain N0054 (Gagneux, lineage 3)), 0.354 µM (≈ 0.197 µg/mL); in [3] (strain N0072 (Gagneux, lineage 1)) it was 0.17 µM (≈ 0.0944 µg/mL). The MIC90 in series [3] (strain N1283 (Gagneux, lineage 4)) was 0.104 µM (≈ 0.0578 µg/mL). Moreover, the MIC50 in series [4] worked out at 0.05 µM (≈ 0.0278 µg/mL).
`NNC(=O)c1ccncc1` [Isoniazid, isoniazid]: the MIC50 in series [4] amounted to 0.51 µM (≈ 0.0699 µg/mL).
In general, IC50 refers to the concentration that gives 50% inhibition. Read a high IC50 as lower potency. As usually defined, the MRT is a mean duration of stay, worked out from the concentration-time curve. As a reminder, the Vd is a proportionality between amount in the body and measured concentration, not a real space. Low values mean confinement near the circulation, high ones extensive tissue distribution. As a reminder, the clearance is the rate of elimination divided by the concentration. A low value points to a low capacity for elimination. Usually half-life stands for the time needed for the level to fall by half in the phase considered. High values mean slow decline, low ones rapid decline. The term bioavailability denotes the share of a dose that reaches the circulation, judged against a reference dose that is usually intravenous. Low values mean little systemic uptake, high ones much systemic uptake. As a reminder, the Cmax is the maximum level reached in the sampled fluid or tissue. The Tmax is the time from dosing to the highest level. By IC20 is commonly meant the concentration needed for an effect of 20%. For the compound `CCc1nc2ccc(Cl)cn2c1C(=O)NCc1ccc(C2CC3(C2)CN(S(=O)(=O)C(F)(F)F)C3)cc1` [JNJ-2901], the “Day of death, individual mice” value in series [1] (intravenous model, listed as J-901) is 16* and 20 and 54 and 26 and 77 and 82. Also, the “Survival of mice under monotherapy” value in [1] (intravenous model, six mice per group, treated for three months, 5 days per week, bedaquiline 25, moxifloxacin 100, JNJ-2901 10 mg kg-1) was “inability to rescue mice”. For the same compound, the MIC90 in the series on M. tuberculosis H37Rv [2] (H37RV, read-out: MIC90 (H37Rv)) worked out at 0.009 µM (≈ 0.00487 µg/mL); with H37Rv_CydBd-KO it was 0.006 µM (≈ 0.00325 µg/mL). For the same compound, the MBC in the series with M. tuberculosis H37Rv [5] was over 0.5 µM; with H37Rv_CytBd-KO it was 0.015 µM (≈ 0.00811 µg/mL). For the same compound, the CFU counts in the series on WT H37Rv (Conc 8 nM) is 80000000 CFU and 35000000 CFU and 53000000 CFU and 30000000 CFU; with WT H37Rv (Conc 32 nM), 60000000 CFU and 30000000 CFU and 17000000 CFU and 12000000 CFU; with WT H37Rv (Conc 128 nM), 20000000 CFU and 14000000 CFU and 12000000 CFU; in the series on N1283 clinical isolate (Conc 8 nM), 9000000 CFU and 800000 CFU and 200000 CFU; with N1283 clinical isolate (Conc 32 nM), 110000 CFU and 300000 CFU and 80000 CFU and 50000 CFU; with N1283 clinical isolate (Conc 128 nM), 20000 CFU and 50000 CFU and 90000 CFU and 80000 CFU. For the same compound, in series [4], the MIC50 stood at 0.01 µM (≈ 0.00541 µg/mL). In addition, the “Dog Hep Clint” value in [6] (hepatocytes) turned out to be 13 µL min-1 106 cells-1. The “Human Hep Clint” value in [6] (hepatocytes) was determined as 10 µL min-1 106 cells-1. Also, the “Rat Hep Clint” value in [6] (hepatocytes) was determined as 16 µL min-1 106 cells-1. For the same compound, in series [6] (microsomes), the “Dog LM Clint” value is 13.1 µL min-1 mg protein-1. In addition, the “Human LM Clint” value in series [6] (microsomes) was 63.3 µL min-1 mg protein-1. Moreover, the “Mouse LM Clint” value in series [6] (microsomes) was 41.0 µL min-1 mg protein-1. For the same compound, in series [6] (microsomes), the “Rat LM Clint” value came to 17.9 µL min-1 mg protein-1. In addition, the “Cyp3A4 ind. (%ctrl)” value came out at 3.1 %ctrl on human PXR (hPXR) (1.25 µM) and 11 %ctrl at human PXR (hPXR) (10 µM). In series [7], the “Mouse Hep Clint” value was found to be 15 µL min-1 106 cells-1. The IC50 at 3A4, against 2C19, against 2C8, at 2C9, against 2D6 and against 1A2 was over 10 µM in each case. In addition, the IC50 with HepG2 cells was over 100 µM. Further, in series [8], the “Mutagenicity (AMES II)” value is “negative”. Further, the “CLp as % LBF” value in [9] (iv, 1 mg/kg) is ~ 9 % LBF. Also, the AUC0-inf is 5287 ± 656 ng·h/mL in [9] (female, po, 5 mg/kg); 28500 ± 935 ng·h/mL in [10]; 9500 ± 1850 ng·h/mL in the series “in vivo [12]” (female, po, 5 mg/kg, AUC0-inf); 38500 ng·h/mL in the series “in vivo [13]” (AUC0-inf). Further, the “activity against MDR-TB strains” value in the series with MDR-TB strains is “sub-nanomolar; also recorded: more active compared to lab-adapted strains”. Moreover, the “reduction in bacterial burden” value in series [11] is recorded as 4 log. The compound further yielded an MRT in the series “in vivo [12]” (iv, 1 mg/kg) of 9.1 ± 0.6 h. The same compound came in with a Vd in the series “in vivo [12]” (iv, 1 mg/kg) of 4.4 ± 0.8 L/kg. This compound registered a clearance in “in vivo [12]” (iv, 1 mg/kg) of 6.4 ± 1.6 mL/min/kg. The half-life in “in vivo [12]” (iv, 1 mg/kg) was 12 ± 0.2 h; in the series “in vivo [12]” (female, po, 5 mg/kg), 10 h; in “in vivo [13]” (t½) it was 8.6 ± 2.8 h. The same compound returned a bioavailability in the series “in vivo [12]” (female, po, 5 mg/kg) of 70 ± 14%. The Cmax in “in vivo [12]” (female, po, 5 mg/kg, Cmax) turned out to be 474 ± 29 ng/mL; in “in vivo [13]”, 2310 ± 767 ng/mL; in “in vivo [13]” (Cmax, Balb/c mouse, PO 5 mg kg-1, 0.5 w/v Methocel (susp.)), 2660 ± 469 ng/mL. In the series “in vivo [12]” (female, po, 5 mg/kg, Tmax), the Tmax came to 7 h. The compound also displayed an IC20 at 72 h in the series “in vitro [14]” of 11.8 µM. For the same compound, the IC50 at 24 h in “in vitro [15]” is over 100 µM.
Take `COc1c(N2C[C@@H]3CCCN[C@@H]3C2)c(F)cc2c(=O)c(C(=O)O)cn(C3CC3)c12` [Moxifloxacin, moxifloxacin, reference compound]: the “Survival of mice under monotherapy” value in series [1] (in vivo, iv) is 100%. Further, the “Day of death, individual mice” value in [1] (intravenous model) is 96.
Regarding `CO[C@H]1/C=C/O[C@@]2(C)Oc3c(C)c(O)c4c(O)c(c(/C=N/N5CCN(C)CC5)c(O)c4c3C2=O)NC(=O)/C(C)=C\C=C\[C@H](C)[C@H](O)[C@@H](C)[C@@H](O)[C@@H](C)[C@H](OC(C)=O)[C@@H]1C` [Rifampicin, rifampicin], in series [4], the MIC50 was 0.1 µM (≈ 0.0823 µg/mL).

The values above are taken from publication PMC12546632, “The role of cytochrome bc1 inhibitors in future tuberculosis treatment regimens” (Nature Communications, 2025).
